Measured values taken from patent publication US20080312435A1, “Imine Compound” (TAISHO PHARMACEUTICAL CO., LTD., priority 2004, published 2008).

Question: For `COCCn1c(C)c(C)s/c1=N\C(=O)c1cccc(C(F)(F)F)c1`, which melting point is on record?
Answer: Its melting point is 64 to 66 °C.

Question: Which melting point does the source give for `CCn1c(C)c(C(C)C)s/c1=N\C(=O)c1cccc(C(F)(F)F)c1F` here?
Answer: Its melting point is 64 to 66 °C.

Question: For `Cc1c(C(C)(C)C)s/c(=N\C(=O)c2cccc(C(F)(F)F)c2)n1C`, which melting point is on record?
Answer: The melting point was 140 to 142 °C.

Question: Which melting point does the source give for `O=C(/N=c1\ccccn1CCC1CC1)c1cccc(C(F)(F)F)c1F` here?
Answer: The melting point was 56 to 58 °C.

Question: For `CCOCCn1cccc/c1=N\C(=O)c1cccc(C(F)(F)F)c1F`, which melting point is on record?
Answer: The melting point was 104.5 to 105.5 °C.

Question: With `CCn1c(C)c(C(C)(C)C)s/c1=N\C(=O)c1cccc(C(F)(F)F)c1` as the compound, how does the melting point read?
Answer: The melting point was 158 to 160 °C.

Question: With `CCn1c(C)c(C(C)(C)C)s/c1=N\C(=O)CC1CCCC1` as the compound, how does the melting point read?
Answer: Its melting point is 149 to 150 °C.

Question: Which melting point does the source give for `CCn1c(C)c(C(C)(C)C)s/c1=N\C(=O)c1cc(C(F)(F)F)ccc1C` here?
Answer: Its melting point is 63 to 65 °C.

Question: For `Cc1c(C(C)(C)C)s/c(=N\C(=O)c2cccc(C(F)(F)F)c2)n1C(C)C`, which melting point is on record?
Answer: The melting point was 135 to 137 °C.

Question: For `Cc1c(C(C)(C)C)s/c(=N\C(=O)c2ccc(Cl)cc2)n1CC1CC1`, which melting point is on record?
Answer: Its melting point is 94 to 95 °C.

Question: Which melting point does the source give for `Cc1c(C(C)(C)C)s/c(=N\C(=O)c2cccc(N3CCCCC3)c2)n1CC1CC1` here?
Answer: The melting point was 89 to 90 °C.

Question: For `Cc1c(C(C)(C)C)s/c(=N\C(=O)c2cccc(N3CCN(C)CC3)c2)n1CC1CC1`, which melting point is on record?
Answer: The melting point was 126 to 128 °C.

Question: Which melting point does the source give for `Cc1c(C(C)(C)C)s/c(=N\C(=O)c2cccc(C(N)=O)c2)n1CC1CC1` here?
Answer: Its melting point is 76 to 78 °C.

Question: For `COC(=O)c1ccc(C(=O)/N=c2\sc(C(C)(C)C)c(C)n2CC2CC2)cc1`, which melting point is on record?
Answer: The melting point was 122 to 123 °C.

Question: For `Cc1c(C(C)(C)C)s/c(=N\C(=O)c2ccc(C(=O)O)cc2)n1CC1CC1`, which melting point is on record?
Answer: The melting point was 196 to 197 °C.

Question: For `Cc1c(CC(C)(C)C(C)(C)C)s/c(=N\C(=O)c2cc(C(F)(F)F)ccc2F)n1CC1CC1`, which melting point is on record?
Answer: The melting point was 88 to 89 °C.

Question: For `O=C(/N=c1\ccc(C(F)(F)F)cn1CC1CC1)c1cccc(C(F)(F)F)c1`, which melting point is on record?
Answer: The melting point was 84 to 85 °C.

Question: With `COCCNC1=C(C(=O)/N=c2\sc(C(C)(C)C)c(C)n2CC2CC2)CC(C(F)(F)F)C=C1` (stereo not shown) as the compound, how does the melting point read?
Answer: The melting point was 131 to 132 °C.

Question: For `CCN(CC)c1ccc(C(F)(F)F)cc1C(=O)/N=c1\sc(C(C)(C)C)c(C)n1CC1CC1`, which melting point is on record?
Answer: Its melting point is 131 to 133 °C.

Question: For `Cc1c(C(C)(C)C)s/c(=N\C(=O)c2cc(C(F)(F)F)ccc2N2CCCCC2)n1CC1CC1`, which melting point is on record?
Answer: The melting point was 138 to 140 °C.

Question: With `CCc1ccnc(C(=O)/N=c2\sc(C(C)(C)C)c(C)n2CC2CC2)c1` as the compound, how does the melting point read?
Answer: The melting point was 104 to 106 °C.

Question: With `Cc1c(C(C)(C)C)s/c(=N\C(=O)C(F)(F)C(F)F)n1CC1CC1` as the compound, how does the melting point read?
Answer: The melting point was 93 to 94 °C.

Question: Which melting point does the source give for `COc1ccc(OC)c(CC(=O)/N=c2\sc(C(C)(C)C)c(C)n2CC2CC2)c1` here?
Answer: Its melting point is 89 to 91 °C.

Question: Which melting point does the source give for `COCCn1c(C)c(C(C)(C)C)s/c1=N\C(=O)c1ccc(Cl)cc1F` here?
Answer: The melting point was 68 to 69 °C.

Question: Which melting point does the source give for `Cc1c(C(C)(C)C)s/c(=N\C(=O)c2cccc(C(F)(F)F)c2)n1CCO` here?
Answer: The melting point was 147 to 149 °C.

Question: With `Cc1c(C(C)(C)C)s/c(=N\C(=O)c2cccc(C(F)(F)F)c2)n1CCN` as the compound, how does the melting point read?
Answer: The melting point was 76 to 78 °C.

Question: With `Cc1c(C(=O)N(C)C)s/c(=N\C(=O)c2cccc(C(F)(F)F)c2)n1CC1CC1` as the compound, how does the melting point read?
Answer: The melting point was 138 to 140 °C.

Question: Which melting point does the source give for `Cc1c(C(=O)NCCN2CCOCC2)s/c(=N\C(=O)c2cccc(C(F)(F)F)c2)n1CC1CC1` here?
Answer: Its melting point is 156 to 158 °C.

Question: With `Cc1s/c(=N\C(=O)c2cccc(C(F)(F)F)c2)n(CC2CC2)c1-c1ccccc1` as the compound, how does the melting point read?
Answer: The melting point was 161 to 162 °C.

Question: For `Cc1c(C(C)C)o/c(=N\C(=O)c2cc(C(F)(F)F)ccc2F)n1CC1CC1`, which melting point is on record?
Answer: Its melting point is 76 to 78 °C.

Question: Which melting point does the source give for `COc1ccc(C(F)(F)F)cc1C(=O)/N=c1\oc(C(C)C)c(C)n1CC1CC1` here?
Answer: The melting point was 118 to 120 °C.

Question: For `O=C(/N=c1\ccc(-c2ccccc2)cn1CC1CC1)c1cccc(C(F)(F)F)c1F`, which melting point is on record?
Answer: Its melting point is 115 to 116 °C.

Question: For `O=C(/N=c1\sc2c(n1CC1CC1)CCCC2)c1cccc(C(F)(F)F)c1`, which melting point is on record?
Answer: Its melting point is 159 to 160 °C.

Question: Which melting point does the source give for `COc1ccc/c(=N\C(=O)c2cccc(C(F)(F)F)c2F)n1CC1CC1` here?
Answer: Its melting point is 126 to 128 °C.

Question: For `O=C(/N=c1\c(F)cc(F)cn1CC1CC1)c1cccc(C(F)(F)F)c1F`, which melting point is on record?
Answer: The melting point was 69 to 71 °C.

Question: With `COc1ccc(C(=O)/N=c2\cc(C)cc(C)n2C)c(OC)c1` as the compound, how does the melting point read?
Answer: Its melting point is 117.5 to 118 °C.

Question: For `Cc1c/c(=N\C(=O)c2cccc(C(F)(F)F)c2F)n(CCC2CC2)n1C`, which melting point is on record?
Answer: The melting point was 97 to 98 °C.

Question: With `CCOCCn1/c(=N/C(=O)c2cccc(C(F)(F)F)c2F)cc(C)n1C` as the compound, how does the melting point read?
Answer: Its melting point is 136 to 137 °C.

Question: For `Cc1c/c(=N\C(=O)c2cccc(C(F)(F)F)c2F)n(CCOC(C)C)n1C`, which melting point is on record?
Answer: The melting point was 88 to 90 °C.

Question: For `Cn1c(C(C)(C)C)c/c(=N\C=O)n1CC1CC1`, which melting point is on record?
Answer: Its melting point is 122 to 124 °C.

Question: With `CC(C)c1ccccc1C(=O)/N=c1\cc(C(C)(C)C)n(C)n1CC1CC1` as the compound, how does the melting point read?
Answer: Its melting point is 113 to 114 °C.

Question: For `Cn1c(C(C)(C)C)c/c(=N\C(=O)c2ccccc2C(F)(F)F)n1CC1CC1`, which melting point is on record?
Answer: The melting point was 83 to 85 °C.

Question: Which melting point does the source give for `Cn1c(C(C)(C)C)c/c(=N\C(=O)c2cccc(Br)c2F)n1CC1CC1` here?
Answer: Its melting point is 127 to 128 °C.

Question: Which melting point does the source give for `Cc1cccc(C(=O)/N=c2\cc(C(C)(C)C)n(C)n2CC2CC2)c1Br` here?
Answer: The melting point was 153 to 155 °C.

Question: Which melting point does the source give for `Cn1c(C(C)(C)C)c/c(=N\C(=O)c2cc(Cl)ccc2Cl)n1CC1CC1` here?
Answer: The melting point was 164 to 165 °C.

Question: Which melting point does the source give for `Cn1c(C(C)(C)C)c/c(=N\S(=O)(=O)c2cccc(C(F)(F)F)c2)n1CC1CC1` here?
Answer: The melting point was 121 to 122 °C.

Question: Which melting point does the source give for `CC(C)(C)c1nn(CC2CC2)/c(=N/C(=O)c2ccc(F)cc2C(F)(F)F)s1` here?
Answer: Its melting point is 76 to 78 °C.

Question: For `CC(C)(C)c1nn(CC2CC2)/c(=N/C(=O)c2cnccc2Cl)s1`, which melting point is on record?
Answer: The melting point was 62 to 63 °C.

Question: With `CC(C)(C)c1nn(CC2CC2)/c(=N/C(=O)c2cc(C(F)(F)F)ccc2F)o1` as the compound, how does the melting point read?
Answer: Its melting point is 61 to 63 °C.

Question: For `COc1ccc(C(F)(F)F)cc1C(=O)/N=c1\cc(C(C)(C)C)on1CC1CC1`, which melting point is on record?
Answer: Its melting point is 64 to 65 °C.

Question: Which melting point does the source give for `CCn1cc(C)s/c1=N\C(=O)c1cccc(C(F)(F)F)c1F` here?
Answer: The melting point was 90 to 92 °C.

Question: With `Cc1cn(CC2CC2)/c(=N\C(=O)c2cccnc2)s1` as the compound, how does the melting point read?
Answer: Its melting point is 115 to 117 °C.

Question: For `Cc1s/c(=N\C(=O)c2cccc(C(F)(F)F)c2F)n(C)c1C`, which melting point is on record?
Answer: Its melting point is 182 to 183 °C.

Question: With `Cc1s/c(=N\C(=O)c2ccccc2Cl)n(CC2CC2)c1C` as the compound, how does the melting point read?
Answer: Its melting point is 125 to 127 °C.

Question: Which melting point does the source give for `CC(C)n1cccc/c1=N\C(=O)c1cccc(C(F)(F)F)c1F` here?
Answer: Its melting point is 86 to 88 °C.

Question: Which melting point does the source give for `Cc1s/c(=N\C(=O)c2ccc(F)cc2Br)n(CC2CC2)c1C` here?
Answer: Its melting point is 144 to 146 °C.

Question: Which melting point does the source give for `Cc1s/c(=N\C(=O)c2ccc(F)cc2C(F)(F)F)n(CC2CC2)c1C` here?
Answer: Its melting point is 143 to 144 °C.

Question: With `CC[C@H](C(=O)/N=c1\sc(C)c(C)n1CC1CC1)c1ccccc1` (racemic) as the compound, how does the melting point read?
Answer: Its melting point is 108 to 110 °C.
